Measurements as given in paper PMC10924921, “Mi-2β promotes immune evasion in melanoma by activating EZH2 methylation” (Nature Communications, 2024).

Assays:
Assay in all cases: biochemical
Design in all cases: KINOMEscan active-site competition binding panel (468 kinase assays), per cent of control at 1000 nM
Details in all cases: KINOMEscan per cent of control (binding competition); read-out: Percent Control
[1] = target: T1, ABL1(F317L)-nonphosphorylated (Homo sapiens, UniProt P00519, F317L)
T1 construct: nonphosphorylated
From the text: (§1) Figure S7 / Percent Control

[2] = target: T2, ABL1(T315I)-nonphosphorylated (Homo sapiens, UniProt P00519, T315I)
T2 construct: nonphosphorylated
From the text: as §1

[3] = target: T3, ABL1(Y253F)-phosphorylated (Homo sapiens, UniProt P00519, Y253F)
T3 construct: phosphorylated
From the text: as §1

ALK = ALK (Homo sapiens, UniProt Q9UM73)
From the text: as §1

ALK(C1156Y) = ALK(C1156Y) (Homo sapiens, UniProt Q9UM73, C1156Y)
From the text: as §1

AURKA = AURKA (Homo sapiens, UniProt O14965)
From the text: as §1

BIKE = target: T4, BIKE (Homo sapiens, UniProt Q9NSY1)
T4 construct: gene BMP2K
From the text: as §1

BRAF = BRAF (Homo sapiens, UniProt P15056)
From the text: as §1

CAMK1 = CAMK1 (Homo sapiens, UniProt Q14012)
From the text: as §1

CAMKK1 = CAMKK1 (Homo sapiens, UniProt Q8N5S9)
From the text: as §1

CDK7 = CDK7 (Homo sapiens, UniProt P50613)
From the text: as §1

DMPK2 = target: T5, DMPK2 (Homo sapiens, UniProt Q6DT37)
T5 construct: gene CDC42BPG
From the text: as §1

EPHA7 = EPHA7 (Homo sapiens, UniProt Q15375)
From the text: as §1

FYN = FYN (Homo sapiens, UniProt P06241)
From the text: as §1

MAP4K4 = MAP4K4 (Homo sapiens, UniProt O95819)
From the text: as §1

MAPKAPK2 = MAPKAPK2 (Homo sapiens, UniProt P49137)
From the text: as §1

MLK1 = target: T6, MLK1 (Homo sapiens, UniProt P80192)
T6 construct: gene MAP3K9
From the text: as §1

PDPK1 = PDPK1 (Homo sapiens, UniProt O15530)
From the text: as §1

PRKCI = PRKCI (Homo sapiens, UniProt P41743)
From the text: as §1

PRKD2 = PRKD2 (Homo sapiens, UniProt Q9BZL6)
From the text: as §1

PRKD3 = PRKD3 (Homo sapiens, UniProt O94806)
From the text: as §1

RIOK2 = RIOK2 (Homo sapiens, UniProt Q9BVS4)
From the text: as §1

SgK110 = target: T7, SgK110 (Homo sapiens, UniProt P0C264)
T7 construct: gene SBK3
From the text: as §1

TBK1 = TBK1 (Homo sapiens, UniProt Q9UHD2)
From the text: as §1

VRK2 = VRK2 (Homo sapiens, UniProt Q86Y07)
From the text: as §1

MAP4K4, sequence (O95819 whole entry): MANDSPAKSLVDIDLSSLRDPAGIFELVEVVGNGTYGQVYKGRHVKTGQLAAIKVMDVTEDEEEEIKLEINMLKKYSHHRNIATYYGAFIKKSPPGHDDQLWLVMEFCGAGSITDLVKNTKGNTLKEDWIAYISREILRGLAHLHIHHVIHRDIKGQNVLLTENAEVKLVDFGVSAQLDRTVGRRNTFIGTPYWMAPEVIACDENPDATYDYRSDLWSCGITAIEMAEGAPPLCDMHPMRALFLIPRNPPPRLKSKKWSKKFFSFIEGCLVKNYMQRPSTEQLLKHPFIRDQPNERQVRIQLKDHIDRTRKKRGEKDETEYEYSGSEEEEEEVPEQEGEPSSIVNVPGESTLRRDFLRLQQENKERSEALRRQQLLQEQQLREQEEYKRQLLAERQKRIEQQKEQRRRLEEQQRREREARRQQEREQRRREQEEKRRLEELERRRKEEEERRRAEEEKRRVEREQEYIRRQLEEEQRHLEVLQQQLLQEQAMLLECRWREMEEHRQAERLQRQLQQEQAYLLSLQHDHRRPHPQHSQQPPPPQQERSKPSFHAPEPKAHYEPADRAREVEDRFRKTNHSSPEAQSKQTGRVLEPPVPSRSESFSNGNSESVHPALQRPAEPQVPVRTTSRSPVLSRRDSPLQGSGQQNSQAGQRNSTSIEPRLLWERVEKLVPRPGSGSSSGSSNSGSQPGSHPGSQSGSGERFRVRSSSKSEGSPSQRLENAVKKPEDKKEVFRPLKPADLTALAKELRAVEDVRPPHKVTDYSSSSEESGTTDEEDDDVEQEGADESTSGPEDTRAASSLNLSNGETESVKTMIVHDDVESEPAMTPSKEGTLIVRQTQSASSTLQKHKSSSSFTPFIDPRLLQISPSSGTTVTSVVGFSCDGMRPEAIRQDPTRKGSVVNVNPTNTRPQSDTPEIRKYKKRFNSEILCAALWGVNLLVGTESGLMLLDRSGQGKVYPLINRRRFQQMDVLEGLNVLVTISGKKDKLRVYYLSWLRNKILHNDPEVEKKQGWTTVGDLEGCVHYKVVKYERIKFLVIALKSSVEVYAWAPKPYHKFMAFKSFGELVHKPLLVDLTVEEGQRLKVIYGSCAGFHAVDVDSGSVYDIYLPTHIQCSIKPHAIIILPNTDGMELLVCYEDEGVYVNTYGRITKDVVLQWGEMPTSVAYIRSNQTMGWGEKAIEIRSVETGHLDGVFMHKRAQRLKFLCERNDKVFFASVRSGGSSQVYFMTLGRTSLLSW
RIOK2, sequence (Q9BVS4 whole entry): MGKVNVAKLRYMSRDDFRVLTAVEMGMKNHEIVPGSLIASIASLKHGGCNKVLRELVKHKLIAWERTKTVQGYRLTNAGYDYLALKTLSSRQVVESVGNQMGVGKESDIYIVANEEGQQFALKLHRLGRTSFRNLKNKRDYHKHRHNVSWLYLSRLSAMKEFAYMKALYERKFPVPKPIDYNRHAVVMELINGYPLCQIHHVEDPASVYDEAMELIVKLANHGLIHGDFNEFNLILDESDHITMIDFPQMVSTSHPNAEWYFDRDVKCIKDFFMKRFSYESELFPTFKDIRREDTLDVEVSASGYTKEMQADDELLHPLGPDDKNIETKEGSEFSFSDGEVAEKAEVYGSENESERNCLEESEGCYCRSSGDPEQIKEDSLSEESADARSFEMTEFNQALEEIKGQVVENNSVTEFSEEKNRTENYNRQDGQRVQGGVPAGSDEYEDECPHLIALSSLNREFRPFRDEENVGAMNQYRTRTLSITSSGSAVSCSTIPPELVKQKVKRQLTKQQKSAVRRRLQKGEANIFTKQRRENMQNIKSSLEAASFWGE
CAMKK1, sequence (Q8N5S9 whole entry): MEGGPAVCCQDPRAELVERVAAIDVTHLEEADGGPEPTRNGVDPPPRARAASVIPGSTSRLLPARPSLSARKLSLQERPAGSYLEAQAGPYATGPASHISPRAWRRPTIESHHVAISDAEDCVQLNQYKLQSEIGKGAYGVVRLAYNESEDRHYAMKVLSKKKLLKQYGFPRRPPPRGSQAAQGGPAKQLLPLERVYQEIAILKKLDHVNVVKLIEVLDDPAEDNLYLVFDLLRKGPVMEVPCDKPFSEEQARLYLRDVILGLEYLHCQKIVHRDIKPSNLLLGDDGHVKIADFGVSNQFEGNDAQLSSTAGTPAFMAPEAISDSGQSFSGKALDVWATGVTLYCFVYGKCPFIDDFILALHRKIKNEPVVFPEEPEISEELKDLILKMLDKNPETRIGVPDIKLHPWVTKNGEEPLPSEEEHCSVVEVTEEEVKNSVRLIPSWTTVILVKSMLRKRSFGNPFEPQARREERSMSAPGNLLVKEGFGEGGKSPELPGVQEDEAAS
T6 sequence (P80192 whole entry): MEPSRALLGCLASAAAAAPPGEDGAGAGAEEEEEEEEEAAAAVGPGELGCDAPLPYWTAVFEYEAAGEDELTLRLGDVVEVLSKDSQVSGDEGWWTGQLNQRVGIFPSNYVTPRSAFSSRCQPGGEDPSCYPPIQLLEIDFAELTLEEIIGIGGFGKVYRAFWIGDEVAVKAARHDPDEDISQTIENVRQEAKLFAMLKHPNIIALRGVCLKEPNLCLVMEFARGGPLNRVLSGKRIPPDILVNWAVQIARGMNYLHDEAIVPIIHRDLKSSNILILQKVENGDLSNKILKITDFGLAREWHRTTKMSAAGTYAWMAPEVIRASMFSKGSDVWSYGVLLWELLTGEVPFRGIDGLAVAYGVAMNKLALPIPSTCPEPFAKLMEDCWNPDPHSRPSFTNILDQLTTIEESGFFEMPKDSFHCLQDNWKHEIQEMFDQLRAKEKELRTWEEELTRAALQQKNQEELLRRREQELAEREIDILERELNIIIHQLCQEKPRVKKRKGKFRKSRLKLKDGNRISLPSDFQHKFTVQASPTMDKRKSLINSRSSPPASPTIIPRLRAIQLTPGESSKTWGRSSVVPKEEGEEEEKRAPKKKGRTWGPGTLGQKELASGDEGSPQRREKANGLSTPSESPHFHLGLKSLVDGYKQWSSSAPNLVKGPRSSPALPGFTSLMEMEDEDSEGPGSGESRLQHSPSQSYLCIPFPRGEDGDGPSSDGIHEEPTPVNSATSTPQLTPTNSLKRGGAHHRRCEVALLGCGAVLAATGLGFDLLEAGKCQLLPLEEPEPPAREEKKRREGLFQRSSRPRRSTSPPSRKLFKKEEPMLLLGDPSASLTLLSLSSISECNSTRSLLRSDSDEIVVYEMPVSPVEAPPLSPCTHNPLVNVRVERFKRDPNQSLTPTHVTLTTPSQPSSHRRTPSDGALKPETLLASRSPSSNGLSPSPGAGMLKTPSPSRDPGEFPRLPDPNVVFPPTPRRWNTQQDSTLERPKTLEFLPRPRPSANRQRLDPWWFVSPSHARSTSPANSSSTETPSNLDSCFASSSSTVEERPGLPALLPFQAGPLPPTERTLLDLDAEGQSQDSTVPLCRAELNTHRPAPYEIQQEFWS
BRAF, sequence (P15056 whole entry): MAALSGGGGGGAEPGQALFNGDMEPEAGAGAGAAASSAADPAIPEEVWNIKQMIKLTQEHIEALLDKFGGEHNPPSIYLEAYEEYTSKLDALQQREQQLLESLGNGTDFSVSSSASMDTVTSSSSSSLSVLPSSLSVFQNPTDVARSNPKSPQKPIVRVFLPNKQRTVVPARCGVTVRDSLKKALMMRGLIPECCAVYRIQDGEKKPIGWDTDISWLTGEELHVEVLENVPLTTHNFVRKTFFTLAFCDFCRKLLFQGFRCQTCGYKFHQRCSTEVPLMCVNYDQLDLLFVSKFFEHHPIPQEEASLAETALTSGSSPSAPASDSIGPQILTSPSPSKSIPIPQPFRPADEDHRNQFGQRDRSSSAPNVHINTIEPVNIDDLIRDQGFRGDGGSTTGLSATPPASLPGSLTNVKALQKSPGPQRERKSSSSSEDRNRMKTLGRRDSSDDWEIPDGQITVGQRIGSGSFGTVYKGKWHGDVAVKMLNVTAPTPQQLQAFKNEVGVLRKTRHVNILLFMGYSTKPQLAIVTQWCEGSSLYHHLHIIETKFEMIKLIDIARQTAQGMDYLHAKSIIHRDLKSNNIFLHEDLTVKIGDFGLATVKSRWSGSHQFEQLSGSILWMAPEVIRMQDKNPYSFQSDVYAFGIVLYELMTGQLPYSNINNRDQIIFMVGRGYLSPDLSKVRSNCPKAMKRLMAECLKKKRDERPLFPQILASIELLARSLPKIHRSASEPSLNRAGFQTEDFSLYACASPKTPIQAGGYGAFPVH
PDPK1, sequence (O15530 whole entry): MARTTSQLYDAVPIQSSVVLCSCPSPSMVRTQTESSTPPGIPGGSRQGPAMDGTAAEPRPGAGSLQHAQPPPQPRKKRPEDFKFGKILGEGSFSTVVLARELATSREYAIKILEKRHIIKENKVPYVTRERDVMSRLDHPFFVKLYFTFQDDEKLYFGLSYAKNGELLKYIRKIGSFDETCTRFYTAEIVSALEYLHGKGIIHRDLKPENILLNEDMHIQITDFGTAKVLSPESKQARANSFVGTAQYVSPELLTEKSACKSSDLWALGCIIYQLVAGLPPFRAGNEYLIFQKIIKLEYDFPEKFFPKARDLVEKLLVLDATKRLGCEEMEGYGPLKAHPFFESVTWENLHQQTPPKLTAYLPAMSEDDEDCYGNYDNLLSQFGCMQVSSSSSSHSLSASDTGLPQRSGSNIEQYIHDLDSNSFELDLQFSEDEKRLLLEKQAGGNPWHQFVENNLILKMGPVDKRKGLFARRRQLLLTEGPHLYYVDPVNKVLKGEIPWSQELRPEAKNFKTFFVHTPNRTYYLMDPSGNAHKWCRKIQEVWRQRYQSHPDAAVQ
CDK7, sequence (P50613 whole entry): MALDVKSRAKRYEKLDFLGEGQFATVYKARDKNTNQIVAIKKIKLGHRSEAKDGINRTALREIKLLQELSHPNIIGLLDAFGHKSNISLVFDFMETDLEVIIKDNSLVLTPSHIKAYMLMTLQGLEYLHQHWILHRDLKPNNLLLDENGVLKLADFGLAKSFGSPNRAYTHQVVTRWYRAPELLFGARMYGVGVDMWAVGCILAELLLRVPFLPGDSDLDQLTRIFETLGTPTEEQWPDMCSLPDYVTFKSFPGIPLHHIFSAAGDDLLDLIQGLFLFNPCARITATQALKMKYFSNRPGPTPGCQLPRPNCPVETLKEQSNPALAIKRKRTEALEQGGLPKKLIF

SMILES: Cn1c(=O)[nH]c2ccc(-c3cccc(C(=O)NC4CCn5ccnc5C4)c3)cc21 (stereo not shown) [Z36-MP5]
- remaining binding at 1 µM [1]: 82%
- remaining binding at 1 µM [2]: 56%
- remaining binding at 1 µM [3]: 72%
- remaining binding at 1 µM (ALK): 51%
- remaining binding at 1 µM (ALK(C1156Y)): 92%
- remaining binding at 1 µM (AURKA): 56%
- remaining binding at 1 µM (BIKE): 100%
- remaining binding at 1 µM (BRAF): 88%
- remaining binding at 1 µM (CAMK1): 91%
- remaining binding at 1 µM (CAMKK1): 39%
- remaining binding at 1 µM (CDK7): 42%
- remaining binding at 1 µM (DMPK2): 99%
- remaining binding at 1 µM (EPHA7): 93%
- remaining binding at 1 µM (FYN): 100%
- remaining binding at 1 µM (MAP4K4): 67%
- remaining binding at 1 µM (MAPKAPK2): 55%
- remaining binding at 1 µM (MLK1): 98%
- remaining binding at 1 µM (PDPK1): 97%
- remaining binding at 1 µM (PRKCI): 71%
- remaining binding at 1 µM (PRKD2): 64%
- remaining binding at 1 µM (PRKD3): 91%
- remaining binding at 1 µM (RIOK2): 84%
- remaining binding at 1 µM (SgK110): 97%
- remaining binding at 1 µM (TBK1): 98%
- remaining binding at 1 µM (VRK2): 72%
